Experimental data as given in patent US8187821B2, “Compositions and methods for the modulation of PGRMC1” (University of Utah Research Foundation, priority 2008, dated 2012).

Assay: Solubility of ligand in the binding assay
Type: physicochemical
Conditions: binding assay buffer; read-out: concentration above which only partially soluble in the assay
Description: Next, the question of whether binding of ligand to His10-PGRMC1 (His10 disclosed as SEQ ID NO: 14) is saturable was examined. […] Ligand binding time was held constant while increasing the ligand concentration by half logs in each experiment. The ligand concentration spanned four orders of magnitude from lowest to highest. […] Cholesterol was only partially soluble in our assay at concentrations greater than 3 mM so testing saturation at higher concentrations was unable to be performed.

Structure (SMILES): CC(C)CCC[C@@H](C)[C@H]1CC[C@H]2[C@@H]3CC=C4C[C@@H](O)CC[C@]4(C)[C@H]3CC[C@]12C [Cholesterol, cholesterol]
- solubility: > 3000 µM
